Reference: BigSolDB 2.1

Q: For `CC1(C)[C@H](C(=O)O)[C@@H]1/C=C(\Cl)C(F)(F)F` (racemic), which solubility (mole fraction) (in cyclohexane, 283.15 K) is on record?
A: The solubility (mole fraction) was 0.00261.

Q: And the solubility (mole fraction) (in cyclohexane, 288.15 K)?
A: Its solubility (mole fraction) is 0.00304.

Q: What about the solubility (mole fraction) (in cyclohexane, 293.15 K) of the same molecule?
A: The solubility (mole fraction) was 0.00447.

Q: What about the solubility (mole fraction) (in cyclohexane, 298.15 K) of the same molecule?
A: Its solubility (mole fraction) is 0.00592.

Q: What about the solubility (mole fraction) (in cyclohexane, 303.15 K) of the same molecule?
A: The solubility (mole fraction) was 0.00821.

Q: What about the solubility (mole fraction) (in cyclohexane, 308.15 K) of the same molecule?
A: Its solubility (mole fraction) is 0.0119.

Q: What about the solubility (mole fraction) (in cyclohexane, 313.15 K) of the same molecule?
A: Its solubility (mole fraction) is 0.0175.

Q: What about the solubility (mole fraction) (in cyclohexane, 318.15 K) of the same molecule?
A: Its solubility (mole fraction) is 0.0258.

Q: And the solubility (mole fraction) (in cyclohexane, 323.15 K)?
A: The solubility (mole fraction) was 0.0384.

Q: And the solubility (mole fraction) (in ethanol, 283.15 K)?
A: Its solubility (mole fraction) is 0.077.

Q: And the solubility (mole fraction) (in ethanol, 288.15 K)?
A: Its solubility (mole fraction) is 0.0817.

Q: What about the solubility (mole fraction) (in ethanol, 293.15 K) of the same molecule?
A: The solubility (mole fraction) was 0.0944.

Q: And the solubility (mole fraction) (in ethanol, 298.15 K)?
A: Its solubility (mole fraction) is 0.106.

Q: And the solubility (mole fraction) (in ethanol, 303.15 K)?
A: The solubility (mole fraction) was 0.121.

Q: And the solubility (mole fraction) (in ethanol, 308.15 K)?
A: The solubility (mole fraction) was 0.143.

Q: And the solubility (mole fraction) (in ethanol, 313.15 K)?
A: The solubility (mole fraction) was 0.168.

Q: What about the solubility (mole fraction) (in ethanol, 318.15 K) of the same molecule?
A: The solubility (mole fraction) was 0.195.

Q: And the solubility (mole fraction) (in ethanol, 323.15 K)?
A: Its solubility (mole fraction) is 0.228.

Q: And the solubility (mole fraction) (in ethyl acetate, 283.15 K)?
A: The solubility (mole fraction) was 0.0818.

Q: What about the solubility (mole fraction) (in ethyl acetate, 288.15 K) of the same molecule?
A: Its solubility (mole fraction) is 0.0938.

Q: What about the solubility (mole fraction) (in ethyl acetate, 293.15 K) of the same molecule?
A: The solubility (mole fraction) was 0.109.

Q: What about the solubility (mole fraction) (in ethyl acetate, 298.15 K) of the same molecule?
A: The solubility (mole fraction) was 0.123.

Q: What about the solubility (mole fraction) (in ethyl acetate, 303.15 K) of the same molecule?
A: The solubility (mole fraction) was 0.141.

Q: And the solubility (mole fraction) (in ethyl acetate, 308.15 K)?
A: The solubility (mole fraction) was 0.165.

Q: And the solubility (mole fraction) (in ethyl acetate, 313.15 K)?
A: Its solubility (mole fraction) is 0.186.

Q: What about the solubility (mole fraction) (in ethyl acetate, 318.15 K) of the same molecule?
A: The solubility (mole fraction) was 0.217.

Q: What about the solubility (mole fraction) (in ethyl acetate, 323.15 K) of the same molecule?
A: The solubility (mole fraction) was 0.243.

Q: What about the solubility (mole fraction) (in isobutanol, 283.15 K) of the same molecule?
A: The solubility (mole fraction) was 0.0701.

Q: What about the solubility (mole fraction) (in isobutanol, 288.15 K) of the same molecule?
A: The solubility (mole fraction) was 0.0843.

Q: And the solubility (mole fraction) (in isobutanol, 293.15 K)?
A: Its solubility (mole fraction) is 0.099.

Q: What about the solubility (mole fraction) (in isobutanol, 298.15 K) of the same molecule?
A: Its solubility (mole fraction) is 0.116.

Q: And the solubility (mole fraction) (in isobutanol, 303.15 K)?
A: Its solubility (mole fraction) is 0.13.

Q: What about the solubility (mole fraction) (in isobutanol, 308.15 K) of the same molecule?
A: Its solubility (mole fraction) is 0.147.

Q: What about the solubility (mole fraction) (in isobutanol, 313.15 K) of the same molecule?
A: The solubility (mole fraction) was 0.168.

Q: And the solubility (mole fraction) (in isobutanol, 318.15 K)?
A: Its solubility (mole fraction) is 0.2.

Q: And the solubility (mole fraction) (in isobutanol, 323.15 K)?
A: The solubility (mole fraction) was 0.233.

Q: What about the solubility (mole fraction) (in methanol, 283.15 K) of the same molecule?
A: Its solubility (mole fraction) is 0.058.

Q: What about the solubility (mole fraction) (in methanol, 288.15 K) of the same molecule?
A: The solubility (mole fraction) was 0.0664.

Q: What about the solubility (mole fraction) (in methanol, 293.15 K) of the same molecule?
A: Its solubility (mole fraction) is 0.0722.

Q: And the solubility (mole fraction) (in methanol, 298.15 K)?
A: Its solubility (mole fraction) is 0.0813.

Q: What about the solubility (mole fraction) (in methanol, 303.15 K) of the same molecule?
A: Its solubility (mole fraction) is 0.098.

Q: And the solubility (mole fraction) (in methanol, 308.15 K)?
A: The solubility (mole fraction) was 0.119.

Q: And the solubility (mole fraction) (in methanol, 313.15 K)?
A: Its solubility (mole fraction) is 0.139.

Q: And the solubility (mole fraction) (in methanol, 318.15 K)?
A: Its solubility (mole fraction) is 0.166.

Q: And the solubility (mole fraction) (in methanol, 323.15 K)?
A: Its solubility (mole fraction) is 0.191.

Q: And the solubility (mole fraction) (in methyl acetate, 283.15 K)?
A: The solubility (mole fraction) was 0.0727.

Q: And the solubility (mole fraction) (in methyl acetate, 288.15 K)?
A: The solubility (mole fraction) was 0.0848.

Q: What about the solubility (mole fraction) (in methyl acetate, 293.15 K) of the same molecule?
A: The solubility (mole fraction) was 0.0976.

Q: And the solubility (mole fraction) (in methyl acetate, 298.15 K)?
A: Its solubility (mole fraction) is 0.114.

Q: What about the solubility (mole fraction) (in methyl acetate, 303.15 K) of the same molecule?
A: Its solubility (mole fraction) is 0.129.

Q: And the solubility (mole fraction) (in methyl acetate, 308.15 K)?
A: Its solubility (mole fraction) is 0.151.

Q: And the solubility (mole fraction) (in methyl acetate, 313.15 K)?
A: The solubility (mole fraction) was 0.171.

Q: What about the solubility (mole fraction) (in methyl acetate, 318.15 K) of the same molecule?
A: The solubility (mole fraction) was 0.2.

Q: What about the solubility (mole fraction) (in methyl acetate, 323.15 K) of the same molecule?
A: The solubility (mole fraction) was 0.226.

Q: And the solubility (mole fraction) (in n-butanol, 283.15 K)?
A: Its solubility (mole fraction) is 0.0748.

Q: And the solubility (mole fraction) (in n-butanol, 288.15 K)?
A: Its solubility (mole fraction) is 0.0848.

Q: And the solubility (mole fraction) (in n-butanol, 293.15 K)?
A: The solubility (mole fraction) was 0.0964.

Q: And the solubility (mole fraction) (in n-butanol, 298.15 K)?
A: The solubility (mole fraction) was 0.11.

Q: And the solubility (mole fraction) (in n-butanol, 303.15 K)?
A: Its solubility (mole fraction) is 0.129.

Q: And the solubility (mole fraction) (in n-butanol, 308.15 K)?
A: The solubility (mole fraction) was 0.149.

Q: What about the solubility (mole fraction) (in n-butanol, 313.15 K) of the same molecule?
A: The solubility (mole fraction) was 0.167.

Q: What about the solubility (mole fraction) (in n-butanol, 318.15 K) of the same molecule?
A: The solubility (mole fraction) was 0.203.

Q: What about the solubility (mole fraction) (in n-butanol, 323.15 K) of the same molecule?
A: The solubility (mole fraction) was 0.239.

Q: And the solubility (mole fraction) (in n-butyl acetate, 283.15 K)?
A: Its solubility (mole fraction) is 0.089.

Q: And the solubility (mole fraction) (in n-butyl acetate, 288.15 K)?
A: The solubility (mole fraction) was 0.102.

Q: What about the solubility (mole fraction) (in n-butyl acetate, 293.15 K) of the same molecule?
A: The solubility (mole fraction) was 0.119.

Q: And the solubility (mole fraction) (in n-butyl acetate, 298.15 K)?
A: The solubility (mole fraction) was 0.135.

Q: And the solubility (mole fraction) (in n-butyl acetate, 303.15 K)?
A: Its solubility (mole fraction) is 0.153.

Q: What about the solubility (mole fraction) (in n-butyl acetate, 308.15 K) of the same molecule?
A: Its solubility (mole fraction) is 0.175.

Q: And the solubility (mole fraction) (in n-butyl acetate, 313.15 K)?
A: The solubility (mole fraction) was 0.195.

Q: What about the solubility (mole fraction) (in n-butyl acetate, 318.15 K) of the same molecule?
A: Its solubility (mole fraction) is 0.223.

Q: What about the solubility (mole fraction) (in n-butyl acetate, 323.15 K) of the same molecule?
A: The solubility (mole fraction) was 0.247.

Q: What about the solubility (mole fraction) (in n-propanol, 283.15 K) of the same molecule?
A: The solubility (mole fraction) was 0.0753.

Q: And the solubility (mole fraction) (in n-propanol, 288.15 K)?
A: Its solubility (mole fraction) is 0.0829.

Q: What about the solubility (mole fraction) (in n-propanol, 293.15 K) of the same molecule?
A: Its solubility (mole fraction) is 0.0944.

Q: And the solubility (mole fraction) (in n-propanol, 298.15 K)?
A: Its solubility (mole fraction) is 0.109.

Q: And the solubility (mole fraction) (in n-propanol, 303.15 K)?
A: The solubility (mole fraction) was 0.13.

Q: What about the solubility (mole fraction) (in n-propanol, 308.15 K) of the same molecule?
A: Its solubility (mole fraction) is 0.142.

Q: And the solubility (mole fraction) (in n-propanol, 313.15 K)?
A: The solubility (mole fraction) was 0.173.

Q: What about the solubility (mole fraction) (in n-propanol, 318.15 K) of the same molecule?
A: The solubility (mole fraction) was 0.213.

Q: What about the solubility (mole fraction) (in n-propanol, 323.15 K) of the same molecule?
A: Its solubility (mole fraction) is 0.252.

Q: And the solubility (mole fraction) (in sec-butanol, 283.15 K)?
A: Its solubility (mole fraction) is 0.0987.

Q: And the solubility (mole fraction) (in sec-butanol, 288.15 K)?
A: Its solubility (mole fraction) is 0.111.

Q: What about the solubility (mole fraction) (in sec-butanol, 293.15 K) of the same molecule?
A: The solubility (mole fraction) was 0.138.

Q: What about the solubility (mole fraction) (in sec-butanol, 298.15 K) of the same molecule?
A: The solubility (mole fraction) was 0.161.

Q: And the solubility (mole fraction) (in sec-butanol, 303.15 K)?
A: The solubility (mole fraction) was 0.179.

Q: And the solubility (mole fraction) (in sec-butanol, 308.15 K)?
A: Its solubility (mole fraction) is 0.204.

Q: What about the solubility (mole fraction) (in sec-butanol, 313.15 K) of the same molecule?
A: Its solubility (mole fraction) is 0.231.

Q: What about the solubility (mole fraction) (in sec-butanol, 318.15 K) of the same molecule?
A: The solubility (mole fraction) was 0.265.

Q: And the solubility (mole fraction) (in sec-butanol, 323.15 K)?
A: The solubility (mole fraction) was 0.285.

Q: What about the solubility (mole fraction) (in tert-butanol, 283.15 K) of the same molecule?
A: The solubility (mole fraction) was 0.13.

Q: And the solubility (mole fraction) (in tert-butanol, 288.15 K)?
A: The solubility (mole fraction) was 0.144.

Q: What about the solubility (mole fraction) (in tert-butanol, 293.15 K) of the same molecule?
A: The solubility (mole fraction) was 0.169.

Q: And the solubility (mole fraction) (in tert-butanol, 298.15 K)?
A: The solubility (mole fraction) was 0.197.

Q: And the solubility (mole fraction) (in tert-butanol, 303.15 K)?
A: Its solubility (mole fraction) is 0.224.

Q: And the solubility (mole fraction) (in tert-butanol, 308.15 K)?
A: Its solubility (mole fraction) is 0.247.

Q: And the solubility (mole fraction) (in tert-butanol, 313.15 K)?
A: Its solubility (mole fraction) is 0.271.

Q: What about the solubility (mole fraction) (in tert-butanol, 318.15 K) of the same molecule?
A: The solubility (mole fraction) was 0.3.

Q: And the solubility (mole fraction) (in tert-butanol, 323.15 K)?
A: Its solubility (mole fraction) is 0.331.
